What all share (conditions): averaged IC50
Assay [1] addresses GST-tagged recombinant human TYRO3 kinase domain (Homo sapiens (Human), UniProt Q06418). The experiment in a line: TYRO3 Enzyme Assay (LanthaScreen Eu Kinase Binding, TR-FRET). Summed up:
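LanthaScreen Eu binding (tracer displacement) format read by TR-FRET after 60 min at 22 °C. Emission ratio converted to percent of control; IC50 taken where a 4-parameter logistic fit crosses 50 POC.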

For assay [2], the target named is His-tagged recombinant human MER cytoplasmic domain (Homo sapiens (Human), UniProt Q12866). The assay is described as follows: MER Enzyme Assay (LanthaScreen Eu Kinase Binding, TR-FRET). Summed up:
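LanthaScreen Eu kinase binding (tracer displacement) assay with His-tagged human MER cytoplasmic domain, 60 min incubation at 22 °C. TR-FRET dual-wavelength emission ratio converted to percent of control; IC50 is where the 4-parameter logistic fit crosses 50 POC.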

Assay [3] deals with His-tagged recombinant human AXL cytoplasmic domain (Homo sapiens (Human), UniProt P30530). The experiment in a line: AXL Enzyme Assay (LanthaScreen Eu Kinase Binding, TR-FRET). Summed up:
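LanthaScreen Eu kinase binding format, incubated 60 min at 22 °C and read by TR-FRET dual-wavelength emission ratio as percent of control. IC50 taken where a 4-parameter logistic fit crosses 50 POC.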

SMILES strings stand for the structures.

GST-tagged recombinant human TYRO3 kinase domain, sequence (Q06418 518-790): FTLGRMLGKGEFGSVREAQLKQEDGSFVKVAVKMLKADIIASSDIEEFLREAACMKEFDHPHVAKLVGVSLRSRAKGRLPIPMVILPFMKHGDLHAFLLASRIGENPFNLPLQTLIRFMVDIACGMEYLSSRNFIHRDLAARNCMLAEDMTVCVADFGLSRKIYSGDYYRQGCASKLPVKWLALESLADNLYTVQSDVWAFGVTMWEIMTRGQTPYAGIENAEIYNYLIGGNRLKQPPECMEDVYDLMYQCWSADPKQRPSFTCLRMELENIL
His-tagged recombinant human AXL cytoplasmic domain, sequence (P30530 473-894): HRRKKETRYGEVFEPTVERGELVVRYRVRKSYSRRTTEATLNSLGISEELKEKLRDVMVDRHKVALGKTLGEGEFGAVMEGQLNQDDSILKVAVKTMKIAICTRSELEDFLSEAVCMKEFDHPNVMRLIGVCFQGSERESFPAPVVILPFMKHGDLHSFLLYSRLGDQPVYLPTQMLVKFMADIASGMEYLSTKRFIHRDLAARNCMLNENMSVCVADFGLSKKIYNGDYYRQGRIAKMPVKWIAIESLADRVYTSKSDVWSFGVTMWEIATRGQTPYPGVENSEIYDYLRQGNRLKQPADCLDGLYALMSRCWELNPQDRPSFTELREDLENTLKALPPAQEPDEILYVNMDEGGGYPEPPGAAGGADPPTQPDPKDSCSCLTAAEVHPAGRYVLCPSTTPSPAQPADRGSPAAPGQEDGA
His-tagged recombinant human MER cytoplasmic domain, sequence (Q12866 527-999): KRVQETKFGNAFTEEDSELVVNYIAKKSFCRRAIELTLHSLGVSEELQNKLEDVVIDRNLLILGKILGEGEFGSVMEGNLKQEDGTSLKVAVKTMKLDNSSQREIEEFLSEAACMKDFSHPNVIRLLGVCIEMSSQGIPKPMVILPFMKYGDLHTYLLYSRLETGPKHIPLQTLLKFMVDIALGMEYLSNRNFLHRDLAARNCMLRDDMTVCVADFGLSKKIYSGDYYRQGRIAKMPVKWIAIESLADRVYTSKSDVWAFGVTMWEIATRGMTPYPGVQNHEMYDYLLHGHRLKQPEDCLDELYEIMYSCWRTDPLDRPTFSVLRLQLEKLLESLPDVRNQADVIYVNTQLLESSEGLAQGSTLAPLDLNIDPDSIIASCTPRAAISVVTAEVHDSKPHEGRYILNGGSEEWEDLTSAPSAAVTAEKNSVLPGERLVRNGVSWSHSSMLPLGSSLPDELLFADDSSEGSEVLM

Take `Cn1cc(-c2nn([C@H]3CC[C@@H](Oc4ccc(=O)n(C)n4)CC3)c3cc(N)ncc23)cn1` [Example 75, 6-(((1s,4s)-4-(6-amino-3-(1-methyl-1H-pyrazol-4-yl)-1H-pyrazolo[4,3-c]pyridin-1-yl)cyclohexyl)oxy)-2-methylpyridazin-3(2H)-one]: the IC50 in assay [1], in assay [2] and in assay [3] was 1 to 10 µM throughout.
With `CNc1cc2c(cn1)c(-c1cnn(C(CO)CO)c1)nn2[C@H]1CC[C@@H](Oc2cccc(F)c2)CC1` [Example 409, 2-(4-(1-((1s,4s)-4-(3-fluorophenoxy)cyclohexyl)-6-(methylamino)-1H-pyrazolo[4,3-c]pyridin-3-yl)-1H-pyrazol-1-yl)propane-1,3-diol], the values for the IC50 in assay [1], in assay [2] and in assay [3] were 0.01 to 0.1 µM, under 0.01 µM and under 0.01 µM, respectively.
`CCNc1cc2c(cn1)c(N1CCC[C@H](NC)C1)nn2[C@H]1CC[C@@H](Oc2nccc(C(F)(F)F)c2F)CC1` [Example 338, N-ethyl-1-((1s,4R)-4-((3-fluoro-4-(trifluoromethyl)pyridin-2-yl)oxy)cyclohexyl)-3-((S)-3-(methylamino)piperidin-1-yl)-1H-pyrazolo[4,3-c]pyridin-6-amine]: the IC50 was 0.01 to 0.1 µM in assay [1], under 0.01 µM in assay [2] and under 0.01 µM in assay [3].
`CCNc1cc2c(cn1)c(-c1cnn(C(C)(C)C#N)c1)nn2[C@H]1CC[C@@H](Oc2cn[nH]c2C(F)(F)F)CC1` [Example 312, 2-(4-(6-(ethylamino)-1-((1s,4s)-4-((5-(trifluoromethyl)-1H-pyrazol-4-yl)oxy)cyclohexyl)-1H-pyrazolo[4,3-c]pyridin-3-yl)-1H-pyrazol-1-yl)-2-methylpropanenitrile]: the IC50 in assay [1], in assay [2] and in assay [3] was under 0.01 µM throughout.
As for `CCNc1cc2c(cn1)c(-c1cnn(C[C@@H](O)CO)c1)nn2[C@H]1CC[C@@H](Oc2cccc(Cl)c2F)CC1` [Example 434, (R)-3-(4-(1-((1s,4S)-4-(3-chloro-2-fluorophenoxy)cyclohexyl)-6-(ethylamino)-1H-pyrazolo[4,3-c]pyridin-3-yl)-1H-pyrazol-1-yl)propane-1,2-diol], the IC50 in assay [1], in assay [2] and in assay [3] was under 0.01 µM throughout.
On to `CCNc1cc2c(cn1)c(N1CC[C@H](NC)C1)nn2[C@H]1CC[C@@H](Oc2cccc(C(F)(F)F)c2F)CC1` [Example 491, N-ethyl-1-((1s,4R)-4-(2-fluoro-3-(trifluoromethyl)phenoxy)cyclohexyl)-3-((S)-3-(methylamino)pyrrolidin-1-yl)-1H-pyrazolo[4,3-c]pyridin-6-amine], for which the results for the IC50 in assay [1], in assay [2] and in assay [3] were 0.01 to 0.1 µM, under 0.01 µM and under 0.01 µM, respectively.
As for `CCNc1cc2c(cn1)c(-c1ccc(S(C)(=O)=O)cc1)nn2[C@H]1CC[C@@H](Oc2cn(C)nc2C(F)(F)F)CC1` [Example 290, N-ethyl-1-((1s,4s)-4-((1-methyl-3-(trifluoromethyl)-1H-pyrazol-4-yl)oxy)cyclohexyl)-3-(4-(methylsulfonyl)phenyl)-1H-pyrazolo[4,3-c]pyridin-6-amine], the concentration for half-maximal inhibition (IC50) in assay [1], in assay [2] and in assay [3] was under 0.01 µM each time.
As for `CCNc1cc2c(cn1)c(-c1cnn(CC(C)(O)CO)c1)nn2[C@H]1CC[C@@H](Oc2nccc(C(F)(F)F)c2F)CC1` (stereo partly drawn) [Example 238, 3-(4-(6-(ethylamino)-1-((1s,4s)-4-((3-fluoro-4-(trifluoromethyl)pyridin-2-yl)oxy)cyclohexyl)-1H-pyrazolo[4,3-c]pyridin-3-yl)-1H-pyrazol-1-yl)-2-methylpropane-1,2-diol], the IC50 in assay [1] was 0.01 to 0.1 µM; in assay [2], under 0.01 µM; in assay [3], under 0.01 µM.

These data come from patent US11247990B1, “Bicyclic fused pyridine compounds as inhibitors of TAM kinases” (ARRAY BIOPHARMA INC., priority 2017, dated 2022).
